In the supplement of paper PMC11208160:

experiment: recombinant UMI read abundance after kanamycin selection (control-corrected) (log10(CPM+1)); higher = more efficient recombination; extreme values may be limits of the assay; sequences stand for … in AGTGCAGAGAAAATCGGCCAGTTTTCTCTGCCTGCAGTCCGCATGCCGTGGGACCCCTTGGGTTCTAACCTGTTGCCTAGATTTATGCAGCGGACTGCCTTTCTCCCAAAGTGATAAACCGG…AGGTTGGTTTCACT; site = the 11-nt donor
Procedure, shortened: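 Sequencing read counts were converted to CPM, averaged over two replicates and scaled by control-derived factors. Results are given as log10(CPM+1). The reads covered the donor–target junction of recombinant UMIs from a pooled Escherichia coli screen of donor and donor-binding-loop pairs for the IS621 bridge recombinase.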
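Also: IS621 bridge recombinase in Escherichia coli cells against a fixed T5 target plasmid.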

Sequence	recombinant UMI read abundance (log10)
CTTTAGACATGGACCGGTTTTCCCGGTAATCCGTATTTGAG (site CGTTAGACTCT)	0.118
CTTTAGACATGGACCGGTTTTCCCGGTAATCCGTATTTGAG (site CTTTAGACTCT)	1.31
CTTTATACATGGACCGGTTTTCCCGGTAATCCGTATTTGTT (site CTTTATACTAA)	0.121
CTTTATTCATGGACCGGTTTTCCCGGTAATCCGTATTTGCG (site CTTTATTCTCG)	1.11
CTTTGCCCATGGACCGGTTTTCCCGGTAATCCGTATTTGCT (site CTTTGCCCTAG)	0.182
CTTTGGGCATGGACCGGTTTTCCCGGTAATCCGTATTTGCC (site CTTTGGGCTGG)	0
CTTTTATCATGGACCGGTTTTCCCGGTAATCCGTATTTGAC (site CTAGTATCTGT)	0.225
CTTTTATCATGGACCGGTTTTCCCGGTAATCCGTATTTGAC (site CTTTTATCTGT)	0.762
GAAAAACCATGGACCGGTTTTCCCGGTAATCCGTATTTGGT (site GAAAAACCTAC)	0
GAAAAACCATGGACCGGTTTTCCCGGTAATCCGTATTTGGT (site GACAAACCTAC)	0
GAAAAACCATGGACCGGTTTTCCCGGTAATCCGTATTTGGT (site GAGAAACCTAC)	0
GAAAAACCATGGACCGGTTTTCCCGGTAATCCGTATTTGGT (site GATAAACCTAC)	0
GAAAAGGCATGGACCGGTTTTCCCGGTAATCCGTATTTGTC (site GAAAAGGCTGA)	2.08
GAAACACCATGGACCGGTTTTCCCGGTAATCCGTATTTGAG (site GAAACACCTCT)	0.0146
GAAAGCCCATGGACCGGTTTTCCCGGTAATCCGTATTTGAC (site GAAAGCCCTGT)	0
GAAAGCTCATGGACCGGTTTTCCCGGTAATCCGTATTTGCC (site GAAAGCTCTGG)	2.75
GAAATCTCATGGACCGGTTTTCCCGGTAATCCGTATTTGCG (site GAAATCTCTCG)	2.44
GAAATGGCATGGACCGGTTTTCCCGGTAATCCGTATTTGAC (site GAAATGGCTGT)	1.42
GAACAATCATGGACCGGTTTTCCCGGTAATCCGTATTTGCC (site GAACAATCTGG)	1.67
GAACCGTCATGGACCGGTTTTCCCGGTAATCCGTATTTGTT (site GAACCGTCTAA)	1
GAACGAACATGGACCGGTTTTCCCGGTAATCCGTATTTGGT (site GAACGAACTAC)	1.21
GAACTAGCATGGACCGGTTTTCCCGGTAATCCGTATTTGGT (site CGTTGCCCTTA)	0.00867
GAACTGGCATGGACCGGTTTTCCCGGTAATCCGTATTTGCT (site GAACTGGCTAG)	0.00438
GAACTTGCATGGACCGGTTTTCCCGGTAATCCGTATTTGAC (site CTTACCACTAA)	0.0118
GAAGAGACATGGACCGGTTTTCCCGGTAATCCGTATTTGCT (site GAAGAGACTAG)	2.79

Sequence	recombinant UMI read abundance (log10)
GAAGATGCATGGACCGGTTTTCCCGGTAATCCGTATTTGTT (site GAAGATACTAA)	1.88
GAAGATGCATGGACCGGTTTTCCCGGTAATCCGTATTTGTT (site GAAGATCCTAA)	0.286
GAAGATGCATGGACCGGTTTTCCCGGTAATCCGTATTTGTT (site GAAGATGCTAA)	2.81
GAAGATGCATGGACCGGTTTTCCCGGTAATCCGTATTTGTT (site GAAGATTCTAA)	0
GAAGATTCATGGACCGGTTTTCCCGGTAATCCGTATTTGGT (site GAAGATTCTAA)	0.995
GAAGATTCATGGACCGGTTTTCCCGGTAATCCGTATTTGGT (site GAAGATTCTAC)	3.05
GAAGATTCATGGACCGGTTTTCCCGGTAATCCGTATTTGGT (site GAAGATTCTAG)	0
GAAGATTCATGGACCGGTTTTCCCGGTAATCCGTATTTGGT (site GAAGATTCTAT)	1.82
GAAGATTCATGGACCGGTTTTCCCGGTAATCCGTATTTGTA (site GAAGATTCTAA)	0.349
GAAGATTCATGGACCGGTTTTCCCGGTAATCCGTATTTGTA (site GAAGATTCTCA)	1.55
GAAGATTCATGGACCGGTTTTCCCGGTAATCCGTATTTGTA (site GAAGATTCTGA)	0
GAAGATTCATGGACCGGTTTTCCCGGTAATCCGTATTTGTA (site GAAGATTCTTA)	2.5
GAAGCAGCATGGACCGGTTTTCCCGGTAATCCGTATTTGCT (site AAAGCAGCTAG)	1.32
GAAGCAGCATGGACCGGTTTTCCCGGTAATCCGTATTTGCT (site CAAGCAGCTAG)	1.19
GAAGCAGCATGGACCGGTTTTCCCGGTAATCCGTATTTGCT (site GAAGCAGCTAG)	2.25
GAAGCAGCATGGACCGGTTTTCCCGGTAATCCGTATTTGCT (site TAAGCAGCTAG)	2.01
GAAGCGCCATGGACCGGTTTTCCCGGTAATCCGTATTTGTG (site AAAGCGCCTCA)	0.00334
GAAGCGCCATGGACCGGTTTTCCCGGTAATCCGTATTTGTG (site CAAGCGCCTCA)	0.00406
GAAGCGCCATGGACCGGTTTTCCCGGTAATCCGTATTTGTG (site GAAGCGCCTCA)	0.139
GAAGCGCCATGGACCGGTTTTCCCGGTAATCCGTATTTGTG (site TAAGCGCCTCA)	0.00772
GAAGGGCCATGGACCGGTTTTCCCGGTAATCCGTATTTGTG (site GAAGGGCCTCA)	0.0149
GAAGGTACATGGACCGGTTTTCCCGGTAATCCGTATTTGAC (site GAAGGTACTGT)	2.28
GAAGGTACATGGACCGGTTTTCCCGGTAATCCGTATTTGAC (site GCAGGTACTGT)	0
GAAGGTACATGGACCGGTTTTCCCGGTAATCCGTATTTGAC (site GGAGGTACTGT)	0
GAAGGTACATGGACCGGTTTTCCCGGTAATCCGTATTTGAC (site GTAGGTACTGT)	2.16

Sequence	recombinant UMI read abundance (log10)
GAAGTCGCATGGACCGGTTTTCCCGGTAATCCGTATTTGGT (site GAAGTCGCTAC)	1.34
GAAGTGGCATGGACCGGTTTTCCCGGTAATCCGTATTTGGT (site GAAGTGGCTAC)	0.489
GAAGTGGCATGGACCGGTTTTCCCGGTAATCCGTATTTGGT (site GCAGTGGCTAC)	0.177
GAAGTGGCATGGACCGGTTTTCCCGGTAATCCGTATTTGGT (site GGAGTGGCTAC)	0.113
GAAGTGGCATGGACCGGTTTTCCCGGTAATCCGTATTTGGT (site GTAGTGGCTAC)	0.882
GAAGTGTCATGGACCGGTTTTCCCGGTAATCCGTATTTGAA (site GAAGTGTCTTT)	3.13
GAATAGCCATGGACCGGTTTTCCCGGTAATCCGTATTTGCA (site GAATAGCCTTG)	0.97
GAATAGCCATGGACCGGTTTTCCCGGTAATCCGTATTTGCA (site GAATCGCCTTG)	0
GAATAGCCATGGACCGGTTTTCCCGGTAATCCGTATTTGCA (site GAATGGCCTTG)	0.0428
GAATAGCCATGGACCGGTTTTCCCGGTAATCCGTATTTGCA (site GAATTGCCTTG)	0
GAATGAGCATGGACCGGTTTTCCCGGTAATCCGTATTTGGG (site AAATGAGCTCC)	0.0126
GAATGAGCATGGACCGGTTTTCCCGGTAATCCGTATTTGGG (site CAATGAGCTCC)	0.0211
GAATGAGCATGGACCGGTTTTCCCGGTAATCCGTATTTGGG (site GAATGAGCTCC)	0.261
GAATGAGCATGGACCGGTTTTCCCGGTAATCCGTATTTGGG (site TAATGAGCTCC)	0.317
GAATGGCCATGGACCGGTTTTCCCGGTAATCCGTATTTGCC (site GAATGGCCTAG)	0
GAATGGCCATGGACCGGTTTTCCCGGTAATCCGTATTTGCC (site GAATGGCCTCG)	0.0106
GAATGGCCATGGACCGGTTTTCCCGGTAATCCGTATTTGCC (site GAATGGCCTGG)	0
GAATGGCCATGGACCGGTTTTCCCGGTAATCCGTATTTGCC (site GAATGGCCTTG)	0
GAATGGCCATGGACCGGTTTTCCCGGTAATCCGTATTTGCG (site GAATGGCCTAG)	0
GAATGGCCATGGACCGGTTTTCCCGGTAATCCGTATTTGCG (site GAATGGCCTCG)	0.0153
GAATGGCCATGGACCGGTTTTCCCGGTAATCCGTATTTGCG (site GAATGGCCTGG)	0
GAATGGCCATGGACCGGTTTTCCCGGTAATCCGTATTTGCG (site GAATGGCCTTG)	0
GAATGGCCATGGACCGGTTTTCCCGGTAATCCGTATTTGGA (site GAATGGCCTTA)	0
GAATGGCCATGGACCGGTTTTCCCGGTAATCCGTATTTGGA (site GAATGGCCTTC)	0.00798
GAATGGCCATGGACCGGTTTTCCCGGTAATCCGTATTTGGA (site GAATGGCCTTG)	0
